Literature values in patent publication US20090131498A1, “Enantioselective Synthesis of Merrilactone and Its Analogs” (priority 2005, published 2009).

Test system: neurite growth
Details: described by Fukuyama et al. (ref. 3)

## C[C@@]12COC(=O)[C@]1(C)C1O[C@]3(C)[C@@H](O)C[C@]24OC(=O)C[C@]143 (stereo partly shown) [merrilactone A, Merrilactone A]
  activity in a neurite growth assay: promising activity
